From US8975275B2, “Use of chemotherapeutic agents” (priority 1999, dated 2015)
Counter-ions that a name gives are not always drawn.

How the values were obtained:
Type in all cases: in vivo, human
[1] = test system: wounds, bacterial skin infections, diabetic foot syndrome; test: Wound care: topical/local application (patient cases); settings: for wound check-up, ulcer c) / wound check-up, ulcer a) / wound check-up, ulcer b): Patient D 3; for wound check-up: Patient D 4
From the text: Postoperative wound infections can generally occur in cases of inadequate infection prophylaxis following surgical interventions. Posttraumatic wound infections can arise due to cuts, stings, bruises, bites or gunshot wounds. Local perioperative prophylaxis can be carried out in the case of aseptic operations with a slight risk of infection. It is also possible to use local perioperative prophylaxis in addition to systemic perioperative prophylaxis, for example in the case of infections with an increased risk of infection, such as implantations, heart operations, transplantations, neurosurgical operations, operations in a highly contaminated area such as the oral cavity, oesophagus, rectum or colon, hysterectomy, bile duct operations, operations on patients with lowered resistance, or amputations. The local treatment of first, second or third degree burns can be administered prophylactically or after infection. […] Examples of hand infections are panaritium cutaueum, panaritium subcutaneum, panaritium ossale, panaritium articulate or tendovaginitis purulenta. In postoperative sepsis the infected wounds can be rendered substantially or completely free of microbes by the topical application of antibacterial agents. Gangrenes can be handled by local treatment with antibiotics in addition to therapy with parenteral antibiotics. Examples of acute bacterial skin infections are pyoderma, erysipelas, furuncles, carbuncles, phlegmons, abscesses, ulcus cruris, diabetic foot, infected decubital ulcers, blood blisters, erysipeloids or erytlrasma. Examples of chronic bacterial skin infections are lupus vulgaris, swimming-pool granuloma, Buruli ulcers or actinomycosis. Secondary bacterial infections occur for example in virus infections such as herpes simplex, herpes zoster or chicken-pox. Secondary bacterial infections of dermatoses occur for example in eczema, the exudation stage of neurodermatitis, vesicular dermatoses or contact dermatitis. Milder and moderate forms of acne and rosacea can also be treated locally.

periodontal diseases = test: Topical treatment of periodontal diseases (patient cases)
From the text: To do this, threads or so-called chips impregnated with solutions or gelatinous preparations of the compounds of formula (I) or formula (II) are inserted in the gingival pocket. A possible alternative is to use medicament carriers in the form of trays covering the teeth and gingiva. Before they are applied, the gelatinous applications of the compounds of formula (I) or formula (II) are instilled into the gingival pockets. In addition, the gel containing the compounds of formula (I) or formula (II) can also be placed in the medicament carrier. This use of medicament carriers is advantageous because the treatment time can be reduced by the rapid onset of action to about 15 to 30 minutes, so the treatment can be carried out directly in the surgery. The compounds of formula (I) or formula (II) can be used in concentrations of 0.005 mg/ml to 200 mg/ml. Preferred concentrations are those ranging from 0.5 mg/ml to 200 mg/ml and particularly preferred concentrations are those ranging from 10 to 150 mg/ml. Periodontal diseases can also be treated by administering the compounds of formula (I) or formula (II) by intraligamental injection, it being possible to use concentrations ranging from 0.005 mg/ml to 200 mg/ml, preferably from 0.5 mg/ml to 200 mg/ml. For the antibiotics commonly used nowadays, such as tetracyclines, an intraligamental injection is not reasonable since these compounds with a predominantly bacteriostatic action are quickly washed out due to the rapid fluid exchange in the periodontal interstice, and cannot develop their action. Tetra-cyclines can therefore only develop their effects via depot formulations. By contrast, the compounds of formula (I) or formula (II) have a very rapid and also bactericidal action, so their residence time in the periodontal interstice is sufficient to destroy the microbes.

[2] = test system: infected root canal and periapical region; test: Topical treatment of the infected root canal and the periapical region (patient cases)
Procedure: In the clinical use of the compounds of formula (I) or formula (II), the pulp residues are removed first. The preparation of the canals is carried out with minimum discomfort for the patient. The canals are then flushed with hydrogen peroxide, Other methods of disinfection can be omitted. The compounds of formula (I) or formula (II), in a liquid form of administration, are then introduced into the toot canal under pressure using a cannula. The compounds of formula (I) or (II) are then injected in dissolved form or in a gelatinous form of administration. The root canal is subsequently occluded in the crown region, first with a cotton wool plug and then with zinc phosphate cement to seal the margins. If the canals are not gangrenous, the antibiotics remain in the canals for 3 days. […] The compounds of formula (I) or formula (II) can be used in concentrations of 0.005 mg/ml to 200 mg/ml.
In this application technique, which is known from intraligamental anaesthesia, the tooth is completely flooded with the antibacterial solution of the compounds of formula (I) or formula (II) in the entire root region.

[3] = gel (1%) weekly, after 2nd week

SMILES: COc1c(N2C[C@@H]3CCCN[C@@H]3C2)c(F)cc2c(=O)c(C(=O)O)cn(C3CC3)c12 [moxifloxacin hydrochloride, 1-cyclopropyl-6-fluoro-1,4-dihydro-8-methoxy-7-[(4aS,7aS)-octahydro-6H-pyrrolo[3,4-b]pyridin-6-yl]-4-oxo-3-quinolinecarboxylic acid]
- wound outcome ([1]; Patient D 1, combustio escharotica on left forearm, gel (1%), after one week): Regeneration of skin epithelium with complete wound closure
- wound check-up, ulcer c) ([1]; D IV/D V, gel (1%) weekly, after 2nd week): ulcer C IV/D V healed
- wound check-up, ulcer a) ([1]; deep 2×1.5 cm greasy ulcer under right big toe, dressings with gel (1%) at weekly intervals, after 1st week): ulcer D I, 1×0.5 cm, clean
- wound check-up, ulcer a) [1, 3]: ulcer D I pinhead-size, clean
- wound check-up, ulcer a) ([1]; gel (1%) weekly, after 3rd week): ulcer D I unchanged
- wound check-up, ulcer a) ([1]; gel (1%) weekly, after 4th week): ulcer D I healed
- wound check-up, ulcer c) ([1]; large fissure D IV/D V, dressings with gel (1%) at weekly intervals, after 1st week): ulcer D IV/D V encrusted
- wound check-up, ulcer b) ([1]; large ulcer D III, dressings with gel (1%) at weekly intervals, after 1st week): ulcer D III clean
- wound check-up, ulcer b) ([1]; ulcer D III, gel (1%) weekly, after 2nd week): ulcer D III, clean granular tissue
- wound check-up, ulcer b) ([1]; ulcer D III, gel (1%) weekly, after 3rd week): ulcer D III pinhead-size
- wound check-up, ulcer b) ([1]; ulcer D III, gel (1%) weekly, after 4th week): ulcer D III healed
- wound check-up ([1]; diabetic foot syndrome, 1×1 cm greasy ulcer, dressings with gel (1%) at weekly intervals, after 1st week): ulcer 0.2×0.4 cm, clean
- wound check-up [1, 3]: ulcer healed
- wound outcome ([1]; Patient D 5, diabetic gangrene on left big toe, four applications of gel (1%) at weekly intervals): Regeneration of skin epithelium with complete wound closure, revascularization
- clinical outcome ([1]; Patient D 7, phlegmons on palm of left hand, incision, local antibiosis with gel (1%), repeated after 2 days): Patient symptom-free
- clinical outcome ([1]; Patient D 9, carbuncle on back of neck, excision, open wound treatment with impregnated compress): Patient symptom-free
- clinical finding at check-up (periodontal diseases; Patient B 1, teeth 26 and 27 marginal periodontitis, thread insert gel 50 mgn/ml, check-up after 3 days): patient symptom-free, gingival regions and pockets inflammation-free
- clinical finding at check-up (periodontal diseases; Patient B 2, teeth 14 to 18 severe marginal periodontitis, thread insert gel 50 mg/ml, check-up after 4 days): patient symptom-free, gingival regions and pockets inflammation-free
- clinical finding at check-up (periodontal diseases; Patient B 3, teeth 24 to 28 marginal periodontitis, thread insert 50 mg/ml, check-up after 5 days): patient symptom-free, gingival regions and pockets inflammation-free
- clinical finding at check-up (periodontal diseases; Patient B 4, marginal periodontitis entire upper and lower jaw, medicinal splint gel 0.25 mg/ml 10 minutes/day for 4 days, check-up after 3 days): patient symptom-free, no more inflammatory phenomena present
- clinical finding at check-up (periodontal diseases; Patient B 5, tooth 37 marginal periodontitis, thread insert gel 50 mg/ml, check-up after 8 days): patient symptom-free, gingival regions and pockets inflammation-free
- clinical finding at check-up (periodontal diseases; Patient B 6, teeth 25-28 severe marginal periodontitis, thread insert gel 50 mg/ml + intraligamental injection 50 mg/ml, check-up after 10 days): patient symptom-free, gingival regions and pockets inflammation-free
- clinical finding at check-up ([2]; Patient A 3.11, tooth 34 apical periodontitis, fistula, root canal insert gel 100 mg/ml, check-up after 10 days): patient symptom-free
- clinical finding at check-up ([2]; Patient A 3.12, tooth 44 fistulation, gangrenous, solution 50 mg/ml by paper point + intraligamental injection 50 mg/ml, check-up after 8 days): patient symptom-free
- clinical finding at check-up ([2]; Patient A 3.15, tooth 31 apical periodontitis due to gangrene, solution 50 mg/ml + gel 50 mg/ml + intraligamental injection 50 mg/ml, check-up after 9 days): patient symptom-free, canal odourless
- clinical finding at check-up ([2]; Patient A 3.21, repetition of flushing and insert, check-up after 10 days): patient symptom-free
- clinical finding at check-up ([2]; Patient A 3.21, tooth 22 fistula, gangrenous, flushing solution 50 mg/ml + gel 50 mg/ml + intraligamental injection 50 mg/ml, check-up after 8 days): patient still not fully symptom-free, canal still had very slight odor
- clinical finding at check-up ([2]; Patient A 3.3, tooth 11 apical periodontitis due to gangrene, solution 50 mg/ml + gel 50 mg/ml + intraligamental injection 50 mg/ml, check-up after 3 days): patient symptom-free, canal odourless
- clinical finding at check-up ([2]; Patient A 3.4, tooth 11 apical periodontitis, not gangrenous, root canal insert gel 50 mg/ml, check-up after 3 days): patient symptom-free
- clinical finding at check-up ([2]; Patient A 3.5, tooth 35 apical periodontitis due to gangrene, solution 50 mg/ml + gel 50 mg/ml + intraligamental injection 50 mg/ml, check-up after 7 days): no gangrenous odour, no bite discomfort
- clinical finding at check-up ([2]; Patient A 3.6, tooth 36 apical periodontitis due to gangrene, gel 50 mg/ml + intraligamental injection 50 mg/ml, check-up after 8 days): no gangrenous odour, patient symptom-free
- clinical finding at check-up ([2]; Patient A 3.7, tooth 14 apical periodontitis due to gangrene, gel 100 mg/ml + intraligamental injection 50 mg/ml, check-up after 7 days): patient symptom-free
- clinical finding at check-up ([2]; Patient A 3.8, tooth 34 apical periodontitis due to gangrene, gel 50 mg/ml + intraligamental injection 50 mg/ml, check-up after 13 weeks): patient symptom-free, canal odour-free
- clinical finding at check-up ([2]; Patient A 3.9, tooth 46 apical periodontitis, not gangrenous, gel 100 mg/ml + intraligamental injection 50 mg/ml, check-up after 7 days): patient symptom-free
